Measurements: patent US20070213303A1, “Methods for reducing platelet activation and for the treatment of thrombotic events” (priority 2005, published 2007)

Key:
Type in all cases: cell-based, human
platelets = test: Conventional platelet aggregation induced by collagen
Method: Trisodium citrate (3.8%) and whole blood is immediately mixed in a 1:9 ratio, and then centrifuged at 1200 g for 2.5 minutes, to obtain platelet-rich plasma (PRP), which is kept at room temperature for use within 1 hour for platelet aggregation studies. Platelet count is determined in each PRP sample with a Coulter Counter ZM (Coulter Co., Hialeah, Fla.). Platelet numbers are adjusted to 3.50×10^8/ml for aggregation with homologous platelet-poor plasma. PRP and whole blood aggregation tests are performed simultaneously. Whole blood is diluted 1:1 with the 0.5 ml PBS, and then swirled gently to mix. The cuvette with the stirring bar is placed in the incubation well and allowed to warm to 37° C. for 5 minutes. Then the samples are transferred to the assay well. An electrode is placed in the sample cuvette. […] All agonists are obtained, e.g., from Chronolog Corporation (Hawertown, Pa.). Platelet aggregation studies are performed using a Chrono-Log Whole Blood Lumi-Aggregometer (model 560-Ca). Platelet aggregability is expressed as the percentage of light transmittance change from baseline using platelet-poor plasma as a reference at the end of recording time for plasma samples, or as a change in electrical impedance for whole blood samples. Aggregation curves are recorded for 4 minutes and analyzed according to internationally established standards using Aggrolink® software.
The effect of doses (15 μg/ml to 90 μg/ml) of Compound A on in vitro platelet characteristics in subjects with multiple factors for vascular disease was tested.
The in vitro effects of pre-incubation with escalating concentrations of Compound A on platelet aggregation, and expression of major surface receptors by flow cytometry, were assessed in 20 aspirin naïve volunteers with multiple risk factors for vascular disease.

LAMP-1 (CD107a) = test: Flow cytometry, platelet surface expression of CD107a
Method: (§1) Venous blood (8 ml) is collected in a plastic tube containing 2 ml of acid-citrate-dextrose (ACD) (7.3 g citric acid, 22.0 g sodium citrate.2H2O and 24.5 glucose in 1000 ml distilled water) and mixed well. The blood-ACD mixture is centrifuged at 1000 r.p.m. for 10 minutes at room temperature. The upper ⅔ of the platelet-rich plasma (PRP) is then collected and adjusted to pH=6.5 by adding ACD. The PRP is then centrifuged at 3000 r.p.m. for 10 minutes. The supernatant is removed and the platelet pellet is gently resuspended in 4 cc of the washing buffer (10 mM Tris/HCl, 0.15 M NaCl, 20 mM EDTA, pH=7.4). Platelets are washed in the washing buffer, and in TBS (10 mM Tris, 0.15 M NaCl, pH=7.4). All cells are then divided into the appropriate number of tubes. By way of example, if 9 different surface markers are evaluated, as described herein, then the cells should be divided into ten tubes, such that nine tubes containing washed platelets are incubated with 5 μl fluorescein isothiocyanate (FITC)-conjugated antibodies in the dark at +4° C. for 30 minutes, and one tube remains unstained and serves as a negative control. Surface antigen expression is measured with monoclonal murine anti-human antibodies, such as CD9 (p24); CD41a (IIb/IIIa, aIIbb3); CD42b (Ib); CD61(IIIa) (DAKO Corporation, Carpinteria, Calif.); CD49b (VLA-2, or a2b1); CD62p (P-selectin); CD31 (PECAM-1); CD 41b (IIb); and CD51/CD61 (vitronectin receptor, avb3) (PharMingen, San Diego Calif.), as the expression of these antigens on the cells is associated with platelet activation. After incubation, the cells are washed with TBS and resuspended in 0.25 ml of 1% paraformaldehyde. Samples are stored in the refrigerator at +4° C., and analyzed on a Becton Dickinson FACScan flow cytometer with laser output of 15 mw, excitation at 488 nm, and emission detection at 530±30 nm. The data can be collected and stored in list mode, and then analyzed using CELLQuest® software. FACS procedures are described in detail in, e.g., Gurbel, P. A. et al., J Amer Coll Cardiol 31: 1466-1473 (1998); Serebruany, V. L. et al., Am Heart J 136: 398-405 (1998); Gurbel, P. A. et al., Coron Artery Dis 9: 451-456 (1998) and Serebruany, V. L. et al., Arterioscl Thromb Vasc Biol 19: 153-158 (1999).
(§2) Four cc of blood is collected in a tube, containing 2 cc of acid-citrate-dextrose (ACD; 7.3 g citric acid, 22.0 g sodium citrate.2H2O and 24.5 glucose in 1000 ml distilled water) and mixed well. The buffer, TBS (10 mM Tris, 0.15 M NaCl, pH 7.4) and the following fluorescein isothiocyanate (FITC) conjugated monoclonal antibodies (PharMingen, San Diego, Calif., USA, and DAKO, Calif., USA) are removed from a refrigerator and allowed to warm at room temperature (RT) prior to their use. The non-limiting examples of antibodies that can be used include CD41 (IIb/IIIa), CD31 (PECAM-1), CD62p (P-selectin), and CD51/61 (Vitronectin receptor). For each subject, six amber tubes (1.25 ml) are one Eppendorf tube (1.5 ml) are obtained and marked appropriately 450 μl of TBS buffer is pipetted to the labeled Eppendorf tube. A patient's whole blood tube is inverted gently twice to mix, and 50 μl of whole blood is pipetted to the appropriately labeled Eppendorf tube. The Eppendorf tube is capped and the diluted whole blood is mixed by inverting the Eppendorf tube gently two times, followed by pipetting 50 μl of diluted whole blood to each amber tube. […] The samples are analyzed on a Becton Dickinson FACScan flow cytometer. […]

PAR-1 (SPAN-12) = test: Flow cytometry, PAR-1 thrombin receptor expression (SPAN-12)
Method: as §1, §2

PAC-1 = test: Flow cytometry, activity with PAC-1 antibody
Method: as §1, §2

CD41a = test: Flow cytometry, platelet surface expression of CD41a
Method: as §1, §2

GP37 (CD165) = test: Flow cytometry, platelet surface expression of CD165
Method: as §1, §2

P-selectin (CD62p) = test: Flow cytometry, platelet surface expression of CD62p
Method: as §1, §2

LAMP-3 (CD63) = test: Flow cytometry, platelet surface expression of CD63
Method: as §1, §2

## CC(C)(Sc1cc(C(C)(C)C)c(O)c(C(C)(C)C)c1)Sc1cc(C(C)(C)C)c(OC(=O)CCC(=O)O)c(C(C)(C)C)c1 [Compound A]
platelets
  collagen-induced aggregation: little or no effect
platelets; preincubation 15 μg/mL
  Conventional platelet aggregation, Collagen 5 μg/ml: 64.95 ± 5.1%
platelets; preincubation 30 μg/mL
  Conventional platelet aggregation, Collagen 5 μg/ml: 65.6 ± 8.7%
platelets; preincubation 60 μg/mL
  Conventional platelet aggregation, Collagen 5 μg/ml: 66.6 ± 6.8%
platelets; preincubation 90 μg/mL
  Conventional platelet aggregation, Collagen 5 μg/ml: 65.5 ± 6.0%
LAMP-1 (CD107a)
  LAMP-1 (CD107a): little or no effect
LAMP-1 (CD107a); preincubation 15 μg/mL
  Flow cytometry CD107a: 6.7 ± 1.5
LAMP-1 (CD107a); preincubation 30 μg/mL
  Flow cytometry CD107a: 6.4 ± 1.4
LAMP-1 (CD107a); preincubation 60 μg/mL
  Flow cytometry CD107a: 6.1 ± 1.5
LAMP-1 (CD107a); preincubation 90 μg/mL
  Flow cytometry CD107a: 6.4 ± 1.6
PAR-1 (SPAN-12); preincubation 15 μg/mL
  Flow cytometry PAR-1 (SPAN-12): 25.0 ± 4.2
PAR-1 (SPAN-12); preincubation 30 μg/mL
  Flow cytometry PAR-1 (SPAN-12): 23.9 ± 3.8
PAR-1 (SPAN-12); preincubation 60 μg/mL
  Flow cytometry PAR-1 (SPAN-12): 24.4 ± 2.8
PAR-1 (SPAN-12); preincubation 90 μg/mL
  Flow cytometry PAR-1 (SPAN-12): 19.4 ± 3.5
PAR-1 (SPAN-12); pretreated samples
  PAR-1 thrombin receptor expression, intact epitope: reduced
PAC-1; preincubation 15 μg/mL
  Flow cytometry PAC-1: 11.4 ± 1.1
PAC-1; preincubation 30 μg/mL
  Flow cytometry PAC-1: 11.2 ± 1.4
PAC-1; preincubation 60 μg/mL
  Flow cytometry PAC-1: 10.9 ± 2.2
PAC-1; preincubation 90 μg/mL
  Flow cytometry PAC-1: 10.3 ± 1.8
PAC-1; pretreated samples
  GP IIb/IIIa activity with PAC-1 antibody: decreased
CD41a; preincubation 15 μg/mL
  Flow cytometry CD41a: 185.3 ± 21.3
CD41a; preincubation 30 μg/mL
  Flow cytometry CD41a: 170.3 ± 16.7
CD41a; preincubation 60 μg/mL
  Flow cytometry CD41a: 165.5 ± 16.7
CD41a; preincubation 90 μg/mL
  Flow cytometry CD41a: 160.9 ± 23.2
CD41a; pretreated samples
  Surface platelet expression of GP IIb/IIIa (CD41a) antigen: decreased
GP37 (CD165)
  GP37 (CD165): little or no effect
GP37 (CD165); preincubation 15 μg/mL
  Flow cytometry CD165: 26.9 ± 2.7
GP37 (CD165); preincubation 30 μg/mL
  Flow cytometry CD165: 24.7 ± 2.7
GP37 (CD165); preincubation 60 μg/mL
  Flow cytometry CD165: 26.4 ± 3.7
GP37 (CD165); preincubation 90 μg/mL
  Flow cytometry CD165: 25.5 ± 3.2
P-selectin (CD62p)
  P-selectin (CD62p): little or no effect
P-selectin (CD62p); preincubation 15 μg/mL
  Flow cytometry CD62p: 9.8 ± 1.8
P-selectin (CD62p); preincubation 30 μg/mL
  Flow cytometry CD62p: 10.2 ± 1.9
P-selectin (CD62p); preincubation 60 μg/mL
  Flow cytometry CD62p: 10.5 ± 1.8
P-selectin (CD62p); preincubation 90 μg/mL
  Flow cytometry CD62p: 9.7 ± 1.8
LAMP-3 (CD63)
  LAMP-3 (CD63): little or no effect
LAMP-3 (CD63); preincubation 15 μg/mL
  Flow cytometry CD63: 7.0 ± 1.4
LAMP-3 (CD63); preincubation 30 μg/mL
  Flow cytometry CD63: 7.4 ± 1.4
LAMP-3 (CD63); preincubation 60 μg/mL
  Flow cytometry CD63: 6.8 ± 1.5
LAMP-3 (CD63); preincubation 90 μg/mL
  Flow cytometry CD63: 6.7 ± 1.4
